Measurements as given in patent US20130143905A1, “NOVEL ANTAGONISTS FOR CCR2 AND USES THEREOF” (BOEHRINGER INGELHEIM INTERNATIONAL GMBH, priority 2009, published 2013).

These compounds were tested against T1, CCR2 (Homo sapiens, UniProt P41597) (assay: CCR2 receptor membrane binding assay ([125I]MCP-1, THP-1 membranes, SPA beads)). Conditions: THP-1 cell membranes, [125I]MCP-1 displacement, dissociation constant hKi.
T1 construct: Membranes were prepared from THP-1 cells; endogenous in cells; host or cells: THP-1 (human acute monocytic leukaemia cells), membrane preparation
T1 sequence (P41597 1-360 isoform P41597-2): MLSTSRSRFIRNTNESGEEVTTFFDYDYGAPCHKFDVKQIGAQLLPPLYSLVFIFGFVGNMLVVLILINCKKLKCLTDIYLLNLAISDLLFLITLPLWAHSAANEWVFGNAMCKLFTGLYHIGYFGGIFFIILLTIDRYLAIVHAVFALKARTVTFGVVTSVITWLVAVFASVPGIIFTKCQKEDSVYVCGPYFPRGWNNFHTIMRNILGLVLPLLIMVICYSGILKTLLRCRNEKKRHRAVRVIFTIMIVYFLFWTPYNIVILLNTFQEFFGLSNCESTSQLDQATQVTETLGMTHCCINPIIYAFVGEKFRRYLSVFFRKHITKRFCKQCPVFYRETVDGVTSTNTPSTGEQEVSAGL
Method: The above exemplary substances have been tested for binding to CCR2 using a binding assay as outlined herein below:
THP-1 cells (human acute monocytic leukaemia cells) were cultured under standardized conditions at 37° C. and 5% CO2 in a humidified incubator. THP-1 cells were cultivated in RPMI 1640 medium (Gibco 21875) containing 1% MEM-NEAA (Gibso 11140) 2 mM L-glutamine, 1.5 g/L sodium bicarbonate, 4.5 g/L glucose, 10 mM HEPES and 1.0 mM sodium pyruvate, 90%; 10% fetal calf serum (FCS Gibco 10500-064).
Membranes were prepared from THP-1 cells. THP-1 cells were centrifuged at 300×g at 4° C. for 10 min. The cell pellet was resuspendet in Phosphate Buffer Saline (PBS, including 10 μM Pefabloc and a protease inhibitor mix ‘complete’, Boehringer Mannheim (1 tablet/50 ml)), to a concentration of […]. The membrane preparation was performed by disrupting the cells by nitrogen […] (at 50 bar, for 1 h) in a “Nitrogen Bombe” (Parr Instrument). Cell debris was removed by centrifugation (800×g at 4° C., 1 min). The supernatant was centrifuged at 80000×g, 4° C. for 30 min to sediment the cell membranes. Usually 50 mg of protein (Bradford assay) were yielded from 1×10E9 cells. The membranes were resuspendet in 25 mM HEPES, 25 mM MgCl2, 1 mM CaCl2, 10% Glycerine for storage in aliquots at −80° C. in 25 mM HEPES, 25 mM MgCl2, 1 mM CaCl2, 10% Glycerine and stored at −80° C.
Perkin Elmer NEX 332 Jod 125 MCP-1, Stock: 2200 Ci/mmol solved in 2000 μl assay buffer, stored at −20° C. THP-1 membrane were adjusted with 25 mM HEPES, pH 7.2; 5 mM MgCl2; 0.5 mM CaCl2; 0.2% BSA assay buffer to a concentration of 2.5 μg/15 μl. Amersham Biosciences PVT-WGA Beads (RPNQ0001) were adjusted with assay buffer to a concentration of 0.24 mg/30 μl. For preparation of the membrane-bead-suspension membranes and beads were incubated for 30 min at RT under rotation (60 rpm) with a ratio of 1:2. Test compounds dissolved in 100% DMSO to a concentration of 10 mM and are further diluted with 100% DMSO to 1 mM. All additional compound dilutions were obtained with assay buffer, final 1% DMSO. Compounds, membrane-bead-suspension and [125I]MCP-1 (ca. 25000 cpm/10 μl) were incubated. Bound radioactivity was determined by scintillation counter after 8 h. Determination of affinity of test compounds (dissociation constant hKi) is calculated by iterative fitting of experimental data using the “easy sys” program, which is based on law of mass action (Schittkowski K. (1994), Numerische Mathematik, Vol. 68, 129-142).

Row | Structure (SMILES) | Ki [nM]
1 | CN(C1CCN(C2CCN(C(=O)c3ncnc(NC[C@H]4CCC[C@@H](c5ccccc5)C4)c3C3CC3)CC2)CC1)S(C)(=O)=O [Example 1] | 9
2 | CN(C1CCN(C2CCN(C(=O)c3ncnc(NCc4ccc(C(C)(C)C)cc4)c3C3CC3)CC2)CC1)S(C)(=O)=O [Example 2] | 82
3 | COc1c(NC[C@H]2CCC[C@@H](c3ccccc3)C2)ncnc1C(=O)N1CCC(N2CCC(N(C)S(C)(=O)=O)CC2)CC1 [Example 3] | 5
4 | COc1c(NCC2CCCC(c3ccccc3)C2)ncnc1C(=O)N1CCC(N2CCC(N(C)S(C)(=O)=O)CC2)CC1 (centres unmarked) [Example 4] | 15
5 | COc1c(NC[C@H]2CCC[C@@H](c3ccc(C)cc3)O2)ncnc1C(=O)N1CCC(N2CCC(N(C)S(C)(=O)=O)CC2)CC1 [Example 5] | 84
6 | COc1c(NC[C@H]2CCC[C@@H](c3ccc(C)cc3)O2)ncnc1C(=O)N1CCC(N[C@@H]2CCOC[C@@H]2OC)CC1 [Example 6] | 18
7 | COc1c(NC[C@H]2CCC[C@@H](c3ccc(C)cc3)O2)ncnc1C(=O)N1CCC(N[C@H]2CCOC[C@H]2OC)CC1 [Example 7] | 13
8 | COc1c(NC[C@H]2CCC[C@@H](c3cccc(C)c3)O2)ncnc1C(=O)N1CCC(N2CCC(N(C)S(C)(=O)=O)CC2)CC1 [Example 8] | 73
9 | COc1c(NC[C@H]2CCC[C@@H](c3cccc(C)c3)O2)ncnc1C(=O)N1CCC(N[C@@H]2CCOC[C@@H]2OC)CC1 [Example 9] | 25
10 | COc1c(NC[C@H]2CCC[C@@H](c3cccc(C)c3)O2)ncnc1C(=O)N1CCC(N[C@H]2CCOC[C@H]2OC)CC1 [Example 10] | 19
11 | COc1c(NCc2ccc(C(C)(C)C)cc2)ncnc1C(=O)N1CCC(N2CCC(N(C)S(C)(=O)=O)CC2)CC1 [Example 10a] | 121
12 | COc1c(NC[C@@H]2CCC[C@H](c3ccc(Cl)cc3)O2)ncnc1C(=O)N1CCC(N[C@@H]2CCOC[C@@H]2OC)CC1 [Example 10b] | 162
13 | COc1c(NC[C@@H]2CCC[C@H](c3ccc(Cl)cc3)O2)ncnc1C(=O)N1CCC(N2CCC(N(C)S(C)(=O)=O)CC2)CC1 [Example 10c] | 377
14 | COc1c(NC[C@@H]2CCC[C@H](c3ccc(Cl)cc3)O2)ncnc1C(=O)N1CCC(N[C@H]2CCOC[C@H]2OC)CC1 [Example 10d] | 120
15 | COc1c(NC[C@H]2CCC[C@@H](c3ccc(Cl)cc3)O2)ncnc1C(=O)N1CCC(N[C@@H]2CCOC[C@@H]2OC)CC1 [Example 10e] | 10
16 | COc1c(NC[C@H]2CCC[C@@H](c3ccc(Cl)cc3)O2)ncnc1C(=O)N1CCC(N2CCC(N(C)S(C)(=O)=O)CC2)CC1 [Example 10f] | 60
17 | COc1c(NC[C@H]2CCC[C@@H](c3ccc(Cl)cc3)O2)ncnc1C(=O)N1CCC(N[C@H]2CCOC[C@H]2OC)CC1 [Example 10g] | 7
18 | COc1c(NC[C@H]2CCC[C@@H](c3ccc(C(F)(F)F)cc3)O2)ncnc1C(=O)N1CCC(N[C@H]2CCOC[C@H]2OC)CC1 [Example 10h] | 1
19 | COc1c(NC[C@H]2CCC[C@@H](c3ccc(C(F)(F)F)cc3)O2)ncnc1C(=O)N1CCC(N[C@@H]2CCOC[C@@H]2OC)CC1 [Example 10i] | 3
20 | COc1c(NC[C@H]2CCC[C@@H](c3ccc(OC(F)(F)F)cc3)O2)ncnc1C(=O)N1CCC(N[C@H]2CCOC[C@H]2OC)CC1 [Example 10j] | 1
21 | COc1c(NC[C@H]2CCC[C@@H](c3ccc(OC(F)(F)F)cc3)O2)ncnc1C(=O)N1CCC(N[C@@H]2CCOC[C@@H]2OC)CC1 [Example 10k] | 2
22 | COc1c(NC[C@H]2CCC[C@@H](c3ccc(C(F)(F)F)cc3)O2)ncnc1C(=O)N1CCC(NC2CCOCC2F)CC1 (some centres unmarked) [Example 10l] | 4
23 | COc1c(NC[C@H]2CCC[C@@H](c3ccc(OC(F)(F)F)cc3)O2)ncnc1C(=O)N1CCC(NC2CCOCC2F)CC1 (some centres unmarked) [Example 10m] | 1
24 | COc1c(NC[C@H]2CCC[C@@H](c3ccccc3)C2)ncnc1C(=O)N1CCC(N[C@@H]2CCOC[C@@H]2OC)CC1 [Example 11] | 12
25 | COc1c(NC[C@H]2CCC[C@@H](c3ccccc3)C2)ncnc1C(=O)N1CCC(N[C@H]2CCOC[C@H]2OC)CC1 [Example 12] | 5
26 | COc1c(NC[C@H]2CCC[C@@H](c3ccccc3)C2)ncnc1C(=O)N1CCC(NC2CCOCC2OC)CC1 (some centres unmarked) [Example 13] | 5
27 | COc1c(NC[C@H]2CCC[C@@H](c3ccccc3)C2)ncnc1C(=O)N1CCC(N(C)C2CCOCC2OC)CC1 (some centres unmarked) [Example 14] | 16
28 | COc1c(NC[C@H]2CCC[C@@H](c3ccc(C)cc3)O2)ccnc1C(=O)N1CCC(N[C@H]2CCOC[C@H]2OC)CC1 [Example 15] | 13
29 | COc1c(NC[C@H]2CCC[C@@H](c3ccc(C)cc3)O2)ccnc1C(=O)N1CCC(N[C@@H]2CCOC[C@@H]2OC)CC1 [Example 16] | 22
